Measurements from patent US5244883A, “Nonapeptide bombesin antagonists” (The Administrators of the Tulane Educational Fund, priority 1990, dated 1993).
Where no end group is shown, it is not given here.

Tests used:
3T3 CELLS = type: cell-based, Murine; conditions: GRP 3 ng/ml alone, no antagonist; basal 207000 ± 4200
Experimental: (C) Inhibition of ^3 H-Thymidine incorporation by 3T3cells. SCLC cells were used 2 to 4 days after passage. Single cell suspensions were prepared by washing the cells (twice with PBS then pipetting them in PBS containing 0.2 g/liter glucose, 0.2 g/liter EDTA, and 14 mM lignocaine hydrochloride at 37° C. until the suspension appeared to be uniform (2-4 min). The cells were washed three times and resuspended in HITES without FCSB. Cultures were set up at 1.34×10^5 cells plated on day 0, all peptides added at same time in 1 ml. of RPMI-1640 medium plus HITES and 0.125% albumin. 48 hours later, 1 uc. of tritiated thymidine was added to each well and incubation continued for an additional 24 hours. Cells then were washed and deposited on glass filter paper and washed with ice cold 5% trichloro-acetic acid. Filter paper placed in vials containing scintillation fluid and counted for 1 minute. | 348,000 - 207,000 = 141,000 was taken as the stimulation

serum gastrin = experiment: Serum gastrin inhibition in vivo after GRP stimulation; conditions: rat, eight minutes after GRP 3 μg/100 g BW alone; control 16.7
Experimental: Bombesin analogs Peptides (5), (10) and (2) were tested in vivo on serum gastrin inhibition after GRP stimulation.

Substance: GRP: gastrin releasing peptide, peptide amide containing 27 amino-acid with bombesin-like properties; agonist stimulus (VPLPAGGGTVLTKMYPRGNHWAVGHLM-NH2; UniProt P07492 24-50, looked up)
- DPM ± S.E. (3T3 CELLS): 348000 ± 15300 DPM
- serum gastrin level (serum gastrin): 105 pg/mL
